Experimental data: patent US10774068B2, “Composition and methods for inhibiting mammalian sterile 20-like kinase 1” (The Scripps Research Institute, priority 2015, dated 2020)

Columns and labels:
MST1 = MST1 (Homo sapiens (Human), UniProt Q13043); assay: MST1 biochemical LanthaScreen Eu Kinase Binding Assay; conditions: read-out: Kinase Binding assay-MST1 IC50
Procedure: (§1) MST1 and MST2 biochemical LanthaScreen Eu Kinase Binding Assay was based on the binding and displacement of kinase tracer to the kinase of interest. Compounds in 1000×DMSO stock solution was dispensed using automated dispensing system (Labcyte) to 384 well Corning Microplate at 15 nL, 5 uL of Kinase buffer A was added to each well. Plates were shaken and incubated for 1 min to ensure well dissolution of compounds.

MST2 = MST2 (Homo sapiens (Human), UniProt Q13188); assay: MST2 biochemical LanthaScreen Eu Kinase Binding Assay; conditions: read-out: Kinase Binding assay-MST2 IC50
Sequence of MST2 (Q13188 whole entry): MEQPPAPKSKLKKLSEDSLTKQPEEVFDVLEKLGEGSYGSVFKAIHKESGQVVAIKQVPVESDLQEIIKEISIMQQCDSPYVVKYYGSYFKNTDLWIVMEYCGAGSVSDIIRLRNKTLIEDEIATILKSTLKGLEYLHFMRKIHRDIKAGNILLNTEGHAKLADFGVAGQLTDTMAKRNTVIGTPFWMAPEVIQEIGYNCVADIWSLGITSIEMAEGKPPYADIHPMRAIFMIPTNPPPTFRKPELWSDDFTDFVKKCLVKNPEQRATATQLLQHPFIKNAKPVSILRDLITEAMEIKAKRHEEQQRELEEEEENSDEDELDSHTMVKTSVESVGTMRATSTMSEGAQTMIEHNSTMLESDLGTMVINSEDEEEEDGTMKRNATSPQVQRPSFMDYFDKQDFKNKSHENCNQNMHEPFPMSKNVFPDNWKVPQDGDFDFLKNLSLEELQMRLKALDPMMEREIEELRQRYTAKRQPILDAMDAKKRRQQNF
Procedure: as §1

Sequence of MST1 (Q13043 whole entry): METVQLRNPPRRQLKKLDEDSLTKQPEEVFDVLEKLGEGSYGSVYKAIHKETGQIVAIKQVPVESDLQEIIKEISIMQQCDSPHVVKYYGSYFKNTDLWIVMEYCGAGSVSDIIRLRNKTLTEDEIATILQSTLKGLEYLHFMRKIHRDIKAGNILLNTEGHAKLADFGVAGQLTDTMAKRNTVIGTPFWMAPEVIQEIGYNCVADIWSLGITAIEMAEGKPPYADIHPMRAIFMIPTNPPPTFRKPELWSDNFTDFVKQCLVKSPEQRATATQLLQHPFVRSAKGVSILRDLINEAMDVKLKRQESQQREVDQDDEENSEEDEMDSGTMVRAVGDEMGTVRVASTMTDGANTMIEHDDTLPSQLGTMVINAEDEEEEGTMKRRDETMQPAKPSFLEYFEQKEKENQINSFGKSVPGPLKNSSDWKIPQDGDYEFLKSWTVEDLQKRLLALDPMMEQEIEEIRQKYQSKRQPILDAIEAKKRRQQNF

IC50 (MST1) | Structure (SMILES) | IC50 (MST2)
100 to 1000 nM | CCOc1cc2ncc(C#N)c(Nc3ccc(OCc4cc(C(F)(F)F)ccn4)c(Cl)c3)c2cc1NC(=O)CCCN(C)C [Example 55] | –
< 100 nM | CCOc1cc2ncc(C#N)c(Nc3ccc(OCc4ncccc4C#N)c(Cl)c3)c2cc1NC(=O)CCCN(C)C [Example 19] | < 100 nM
1000 to 10000 nM | CCOc1cc2ncc(C#N)c(Nc3ccccc3)c2cc1NC(C)=O [Example 115, N-(3-cyano-7-ethoxy-4-(phenylamino)quinolin-6-yl)acetamide] | –
1000 to 10000 nM | CCOc1cc2ncc(C#N)c(Nc3ccc(OC)c(Cl)c3)c2cc1NC(=O)CCCN(C)C [Example 138] | –
1000 to 10000 nM | CCOc1cc2ncc(C#N)c(Nc3ccc(NC(C)(C)c4ccccn4)c(Cl)c3)c2cc1NC(=O)CCCN(C)C [Example 113] | –
100 to 1000 nM | CCOc1cc2ncc(C#N)c(Nc3ccc(OCc4ccccc4)c(Cl)c3)c2cc1NC(=O)CCCN(C)C [Example 46] | –
100 to 1000 nM | CCOc1cc2ncc(C#N)c(Nc3ccc(OCCc4c(C)noc4C)c(Cl)c3)c2cc1NC(=O)CCCN(C)C [Example 66] | –
1000 to 10000 nM | CCOc1cc2ncc(C#N)c(Nc3ccc(OCc4ccc5c(n4)OCCC5)c(Cl)c3)c2cc1NC(=O)CCCN(C)C [Example 59] | –
100 to 1000 nM | CCOc1ccc(COc2ccc(Nc3c(C#N)cnc4cc(OCC)c(NC(=O)CCCN(C)C)cc34)cc2Cl)nc1 [Example 57] | –
100 to 1000 nM | CCOc1cc2ncc(C#N)c(Nc3ccc(OCc4cnc5cccnc5c4)c(Cl)c3)c2cc1NC(=O)CCCN(C)C [Example 63] | –
100 to 1000 nM | CCOc1cc2ncc(C#N)c(Nc3ccc(OCc4cocn4)c(Cl)c3)c2cc1NC(=O)CCCN(C)C [Example 69] | –
1000 to 10000 nM | CCOc1cc2ncc(C#N)c(Nc3ccc(Cl)cc3)c2cc1NC(C)=O [Example 122] | –
100 to 1000 nM | CCOc1cc2ncc(C#N)c(Nc3ccc(OCc4cccc(C(F)(F)F)n4)c(Cl)c3)c2cc1NC(=O)CCCN(C)C [Example 54] | –
1000 to 10000 nM | CCOc1cc2ncc(C#N)c(Nc3cccc(S(C)(=O)=O)c3)c2cc1NC(C)=O [Example 134] | –
1000 to 10000 nM | CCOc1cc2ncc(C#N)c(N(C)c3ccccc3)c2cc1NC(C)=O [Example 116] | –
100 to 1000 nM | CCOc1cc2ncc(C#N)c(Nc3ccc(NCc4ccccn4)c(Cl)c3)c2cc1NC(=O)CCCN(C)C [Example 111, N-(4-(3-chloro-4-(pyridin-2-ylmethylamino)phenylamino)-3-cyano-7-ethoxyquinolin-6-yl)-4-(dimethylamino)butanamide] | –
100 to 1000 nM | CCOc1cc2ncc(C#N)c(Nc3ccc(OCc4cc5ncccc5o4)c(Cl)c3)c2cc1NC(=O)CCCN(C)C [Example 71] | –
100 to 1000 nM | CCOc1cc2ncc(C#N)c(Nc3ccc(OCc4ccccn4)cc3)c2cc1NC(=O)CCCN(C)C [Example 47] | –
100 to 1000 nM | CCOc1cc2ncc(C#N)c(Nc3ccc(C)cc3)c2cc1NC(C)=O [Example 120] | –
1000 to 10000 nM | CCOc1cc2ncc(C#N)c(Nc3ccc(OCc4ccncc4)c(Cl)c3)c2cc1NC(=O)CCCN(C)C [Example 50] | –
100 to 1000 nM | CCOc1cc2ncc(C#N)c(Nc3ccc(OCc4ccc(C(=O)OC)cn4)c(Cl)c3)c2cc1NC(=O)CCCN(C)C [Example 58] | –
100 to 1000 nM | CCOc1cc2ncc(C#N)c(Nc3ccc(OCc4cccnn4)c(Cl)c3)c2cc1NC(=O)CCCN(C)C [Example 68] | –
100 to 1000 nM | CCOc1cc2ncc(C#N)c(Nc3ccc(OCc4cnc(C)cn4)c(Cl)c3)c2cc1NC(=O)CCCN(C)C [Example 60] | –
1000 to 10000 nM | CCOc1cc2ncnc(Nc3ccc(OCc4ncccc4C)cc3Cl)c2cc1NC(=O)CCCN(C)C [Example 146, N-(4-(2-chloro-4-((3-methylpyridin-2-yl)methoxy)phenylamino)-7-ethoxyquinazolin-6-yl)-4-(dimethylamino)butanamide] | –

IC50 (MST1) | Structure (SMILES) | IC50 (MST2)
100 to 1000 nM | CCOc1cc2ncc(C#N)c(Nc3ccccc3F)c2cc1NC(C)=O [Example 118] | –
< 100 nM | CCOc1cc2ncc(C#N)c(Nc3ccc(OCc4ccccn4)c(Cl)c3)c2cc1NC(=O)CCCN1CCN(C)CC1 [Example 98] | –
100 to 1000 nM | CCOc1cc2ncc(C#N)c(Nc3cccc(OC)c3)c2cc1NC(C)=O [Example 131] | –
100 to 1000 nM | CCOc1cc2ncc(C#N)c(Nc3ccc(OCc4ccc(C(F)(F)F)cn4)c(Cl)c3)c2cc1NC(=O)CCCN(C)C [Example 53] | –
100 to 1000 nM | CCOc1cc2ncc(C#N)c(Nc3ccc(OC)cc3)c2cc1NC(C)=O [Example 121] | –
100 to 1000 nM | CCOc1cc2ncc(C#N)c(Nc3ccc(OCc4cc(-c5ccc(C)cc5)on4)c(Cl)c3)c2cc1NC(=O)CCCN(C)C [Example 73] | –
100 to 1000 nM | CCOc1cc2ncc(C#N)c(Nc3ccc(OC)c(Cl)c3)c2cc1NC(C)=O [Example 136] | –
100 to 1000 nM | CCOc1cc2ncc(C#N)c(Nc3ccc(OCc4ncccc4-c4ccccc4)c(Cl)c3)c2cc1NC(=O)CCCN(C)C [Example 72] | –
1000 to 10000 nM | CCOc1cc2ncc(C#N)c(Nc3cccc(Cl)c3)c2cc1NC(=O)CCCN(C)C [Example 137, N-(4-(3-chlorophenylamino)-3-cyano-7-ethoxyquinolin-6-yl)-4-(dimethylamino)butanamide] | –
1000 to 10000 nM | CCOc1cc2ncc(C#N)c(Nc3ccc(OCc4cccnc4)cc3)c2cc1NC(=O)CCCN(C)C [Example 51] | –
1000 to 10000 nM | CCOc1cc2ncc(C#N)c(Nc3ccc(NC(C)c4ccccn4)c(Cl)c3)c2cc1NC(=O)CCCN(C)C (centres unmarked) [Example 112] | –
1000 to 10000 nM | CCOc1cc2ncc(C#N)c(Nc3ccc(OCc4cccnc4)c(Cl)c3)c2cc1NC(=O)CCCN(C)C [Example 49] | –
< 100 nM | CCOc1cc2ncc(C#N)c(Nc3ccc(OCc4ccccn4)c(Cl)c3)c2cc1NC(=O)CCN(C)C [Example 96] | –
100 to 1000 nM | CCOc1cc2ncc(C#N)c(Nc3ccc(OCc4nc(C(C)C)no4)c(Cl)c3)c2cc1NC(=O)CCCN(C)C [Example 70] | –
1000 to 10000 nM | CCOc1cc2ncc(C#N)c(Nc3cccc(C)c3)c2cc1NC(C)=O [Example 130] | –
100 to 1000 nM | CCOc1cc2ncc(C#N)c(Nc3ccc(OCCn4ccc(C)n4)c(Cl)c3)c2cc1NC(=O)CCCN(C)C [Example 64] | –
1000 to 10000 nM | CCOc1cc2ncc(C#N)c(Nc3ccc(OCc4ccccn4)c(Cl)c3)c2cc1NC(=O)CC [Example 101] | –
1000 to 10000 nM | CCOc1cc2ncc(C#N)c(Nc3ccc(NC(C)c4ccccc4)c(Cl)c3)c2cc1NC(=O)CCCN(C)C (centres unmarked) [Example 114] | –
1000 to 10000 nM | CCOc1cc2ncc(C#N)c(Nc3ccc(OCCCn4cncn4)c(Cl)c3)c2cc1NC(=O)CCCN(C)C [Example 61] | –
100 to 1000 nM | CCOc1cc2ncc(C#N)c(Nc3ccc(NC(=O)c4ccccc4)c(Cl)c3)c2cc1NC(=O)CCCN(C)C [Example 109, N-(2-chloro-4-(3-cyano-6-(4-(dimethylamino)butanamido)-7-ethoxyquinolin-4-ylamino)phenyl)benzamide] | –
1000 to 10000 nM | CCOc1cc2ncc(C#N)c(Nc3ccc(C#N)cc3)c2cc1NC(C)=O [Example 129] | –
100 to 1000 nM | CCOc1cc2ncc(C#N)c(Nc3ccc(OCc4ccc(OC)cn4)c(Cl)c3)c2cc1NC(=O)CCCN(C)C [Example 56] | –
100 to 1000 nM | CCOc1cc2ncc(C#N)c(Nc3ccc(OCc4ccccn4)c(C)c3)c2cc1NC(=O)CCCN(C)C [Example 48] | –

Structure (SMILES) | IC50 (MST1) | IC50 (MST2)
CCOc1cc2ncc(C#N)c(Nc3ccc(OCc4ncccc4C)cc3C)c2cc1NC(=O)CCCN(C)C [Example 31] | < 100 nM | < 100 nM
